7 compounds from PMC9429723, “Hypertoxic self-assembled peptide with dual functions of glutathione depletion and biosynthesis inhibition for selective tumor ferroptosis and pyroptosis” (Journal of Nanobiotechnology, 2022) can be followed below.

Where two headings read alike, the source gives them in different places. *: point of attachment. Cbz = O=C(OCc1ccccc1)*; CH2F = FC*

Series [1] concerns B16 cells. In kind it is cell-based, mouse. The method, then:
(§1) All cells (8 × 10^3 per well) were plated in 96-well plates at 37 °C and 5% CO2 overnight. Then cells were treated with gradient concentrations of NSBSO, NCSBSO, NS or BSO for another 12 h or 24 h. Afterward, cck-8 reagent was added to each well. And the 96-well plates were incubated for another 3 h at 37 °C and followed by determining the absorbance at 450 nm utilizing a microplate reader (Thermo, USA). IC50 values of NSBSO against different cells were conducted using GraphPad Prism 8 software. Additionally, in order to determine the cell cytotoxicity of NSBSO after treatment with various inhibitors or GSH, the cells were pretreated with inhibitors for 24 h or GSH (0, 1, 2.5 and 5 mM) for 12 h before NSBSO treatment. The human breast adenocarcinoma cell line (MCF-7 cells), mouse melanoma cell line (B16 cells), human lung cancer line (A549 cells), mouse breast cancer cell line (4T1 cells), murine colon carcinoma cell line (CT26 cells) and mouse embryonic fibroblast cell line (3T3 cells) were used for research. MCF-7 and 3T3 cells were cultured in DMEM culture medium supplemented with 10% FBS and 1% penicillin/streptomycin (pen/strep) at 37 °C in 5% CO2. B16, A549, 4T1 and CT26 cells were cultured in RPMI Medium 1640 basic supplemented with 10% FBS and 1% penicillin/streptomycin (pen/strep) at 37 °C in 5% CO2.

The subject of series [2] is 4T1 cells. The format is cell-based, mouse. Here is the method:
as §1

Series [3] deals with B16 cells. Kind of series: Rescue of NSBSO-induced cell death by inhibitors, B16 cells. The format is cell-based, mouse. The conditions noted are these: inhibitor pretreated 24 h, NSBSO 12 h, cck-8. Here is the method: (§2) All cells (8 × 10^3 per well) were plated in 96-well plates at 37 °C and 5% CO2 overnight. Then cells were treated with gradient concentrations of NSBSO, NCSBSO, NS or BSO for another 12 h or 24 h. Afterward, cck-8 reagent was added to each well. And the 96-well plates were incubated for another 3 h at 37 °C and followed by determining the absorbance at 450 nm utilizing a microplate reader (Thermo, USA). IC50 values of NSBSO against different cells were conducted using GraphPad Prism 8 software. Additionally, in order to determine the cell cytotoxicity of NSBSO after treatment with various inhibitors or GSH, the cells were pretreated with inhibitors for 24 h or GSH (0, 1, 2.5 and 5 mM) for 12 h before NSBSO treatment.

The subject of a further series is A549 cells. The format is cell-based, human. The method, then:
as §1

A further series relates to MCF-7 cells. In kind it is cell-based, human. The method, then: as §1
A short description of another series: in vitro. The conditions noted are these: serum.
The subject of the next series is 3T3 cells. The format is cell-based, mouse. Here is the method:
as §1

In the next series the test system is CT26 cells. The format is cell-based, murine. Here is the method: as §1
The subject of series [4] is 4T1 cells. The series is described as follows: Rescue of NSBSO-induced cell death by inhibitors, 4T1 cells. The format is cell-based, mouse. The method, then: as §2
The test system of a further series is GPX4. The series is described as follows: Intracellular GPX4 activity assay in 4T1 cell lysates. In kind it is cell-based, mouse. The conditions noted are these: 10 μM, 6 h, t-BuOOH as substrate. Here is the method: 4T1 cells were all seeded in the density of 1 × 10^6 cells per dish in 6-cm dishes for 24 h. Upon completion of incubation with different treatments for 6 h, the cell lysates were collected and quantified by a detergent compatible bradford protein assay kit. The intracellular GPX activity was measured through a cellular glutathione peroxidase assay kit on the basis of the manufacturer’s instructions.

`CCCCS(=N)(=O)CC[C@H](NC(=O)[C@H](CC(=O)O)NC(=O)[C@@H](NC(=O)[C@H](CCC(=O)O)NC(=O)[C@H](CC(=O)O)NC(=O)CCC(=O)NCCCCCCNC(=O)[C@H](Cc1ccc(O)cc1)NC(=O)[C@@H](Cc1ccccc1)NC(=O)[C@@H](Cc1ccccc1)NC(=O)Cc1ccc2ccccc2c1)C(C)C)C(=O)O` (stereo partly drawn) [NCBSO, Nap-^DF^DFY-HDA-DEVD-BSO]: the cytotoxicity entry with B16 cells [1] and in the series with 4T1 cells [2] was “did not show obvious cytotoxicity” each time.
For the compound Ac-DEVD-CHO, the “rescue of NSBSO-induced cell death” value with B16 cells [3] is on record as “better rescued”.
Usually IC50 stands for the midpoint of a concentration-inhibition curve. The low end stands for greater potency in that assay, the high end for weaker potency in that assay. A word on the fraction remaining: it is the share of the starting amount still present when the sample was taken. For the compound `CCCCS(=N)(=O)CC[C@H](NC(=O)[C@H](CC(=O)O)NC(=O)[C@@H](NC(=O)[C@H](CCC(=O)O)NC(=O)[C@H](CC(=O)O)NC(=O)CCC(=O)NCCSSCCNC(=O)[C@H](Cc1ccc(O)cc1)NC(=O)[C@@H](Cc1ccccc1)NC(=O)[C@@H](Cc1ccccc1)NC(=O)Cc1ccc2ccccc2c1)C(C)C)C(=O)O` (stereo partly drawn) [NSBSO, Nap-^DF^DFY-CS-DEVD-BSO], the IC50 was found to be 7.56 µM in the series with A549 cells (12 h); 1.22 µM in the series on A549 cells (24 h); 4.43 µM in the series on MCF-7 cells (12 h); 1.07 µM in the series with MCF-7 cells (24 h); 1.98 µM in the series on B16 cells [1] (12 h); 0.844 µM in the series with B16 cells [1] (24 h). In addition, the IC50 in the series with 3T3 cells (12 h) was greater than 100 µM; with 3T3 cells (24 h) it was greater than 100 µM; in the series with 4T1 cells [2] (12 h) it was 10.9 µM; in the series on 4T1 cells [2] (24 h), 4.74 µM; in the series with CT26 cells (12 h), greater than 100 µM; in the series with CT26 cells (24 h) it was greater than 100 µM. The compound also came in with an amount remaining at 2 h, 400 μM in “in vitro” greater than 80%. This compound also gave a fraction remaining at 24 h, 400 μM in the series “in vitro” greater than 50%. In addition, the cytotoxicity entry in the series with B16 cells [1] and in the series on 4T1 cells [2] was “concentration-dependent cytotoxicity” in each case.
Consider `CC(C)[C@H](NC(=O)[C@H](CCC(=O)O)NC(=O)[C@H](CC(=O)O)NC(=O)CCC(=O)NCCSSCCNC(=O)[C@H](Cc1ccc(O)cc1)NC(=O)[C@@H](Cc1ccccc1)NC(=O)[C@@H](Cc1ccccc1)NC(=O)Cc1ccc2ccccc2c1)C(=O)N[C@@H](CC(=O)O)C(=O)O` [NS, Nap-^DF^DFY-CS-DEVD], for which the cytotoxicity entry in the series on B16 cells [1] and in the series with 4T1 cells [2] was “concentration-dependent cytotoxicity” throughout.
With Cbz-Val-Ala-Asp-CH2F, in the series with 4T1 cells [4] (NSBSO 5 μM, 24 h, cck-8), the “rescue of NSBSO-induced cell death” value is “scarcely rescued”.
Consider `CCCCS(=N)(=O)CC[C@H](N)C(=O)O` (stereo partly drawn) [BSO, L-buthionine-sulfoximine, reference compound], for which the cytotoxicity entry in the series on B16 cells [1] and in the series on 4T1 cells [2] was “did not show obvious cytotoxicity” in each case. The “activity of GPX4 (rate of NADPH oxidation, 340 nm)” value with GPX4 is on record as “suppressed to varying degrees”.
Turning to `CCOC(=O)c1ccc(NC2CCCCC2)c(N)c1` [Fer-1, ferrostatin-1], the “rescue of NSBSO-induced cell death” value in the series on B16 cells [3] is listed as “did not markedly alleviate”; with 4T1 cells [4] (Fer-1 0.5 μM pretreated 24 h before NSBSO treatment, cck-8, n = 4), 42.13%.
